Test results published in PubChem BioAssay (NCI).
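Where inhibition never reached the appropriate level, the endpoint shown equals the highest concentration tested. Otherwise, values were interpolated linearly from a five-concentration, 48-hour dose response in 96-well plates. The concentration for full growth arrest is given as TGI.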

Tests used:
Assay in all cases: NCI tumour cell line growth inhibition, 48 h
[1] = tested on: HOP-62 NSCLC
[2] = tested on: MDA-N
[3] = tested on: MOLT-4 leukemia
[4] = tested on: OVCAR-3 ovarian
[5] = tested on: RPMI-8226 leukemia
[6] = tested on: RXF 393 renal
[7] = tested on: SK-MEL-2 melanoma
[8] = tested on: DLD-1 colon
[9] = tested on: DMS 114 small cell lung
[10] = tested on: LXFL 529 NSCLC
[11] = tested on: M19-MEL melanoma

In the case of `Cn1c2ccccc2c(=NNc2ccc(C(=O)O)cc2)c2ccccc21`, the TGI [1] is reported as 56.2 µM, the TGI [2] is reported as 33.7 µM and the TGI [3] is reported as 57.4 µM. The TGI [4] was 49.6 µM, the TGI [5] was 53.1 µM and the TGI [6] was 38 µM. For the same compound, the TGI [7] was 40.7 µM.
`Cc1ccc(N=C2C(=O)C3=C(OC(C)(C)CC3)c3ccccc32)cc1` gave a TGI [1] of 1.76 µM, a TGI [2] of 0.335 µM and a TGI [3] of 3.08 µM. It also gave a TGI [4] of 0.589 µM, a TGI [5] of 0.933 µM and a TGI [6] of 3.12 µM. The TGI [7] was 3.31 µM.
With `Nc1nc(Cl)cc(Nc2cc(Cl)cc(Cl)c2)n1` the TGI [1] was 55.1 µM, the TGI [2] was 48.8 µM and the TGI [3] was 47.6 µM. It also gave a TGI [4] of 48.6 µM, a TGI [5] of 66.3 µM and a TGI [6] of 38.3 µM. The TGI [7] was 38.1 µM.
For `CCC(CCCC[C@@H]1CC[C@H]2CC(=O)C[C@@H]12)OC` (stereo partly specified), the TGI [1] was > 100 µM, the TGI [2] was > 100 µM and the TGI [3] was > 100 µM. For the same compound, the TGI [4] was > 100 µM, the TGI [5] was > 100 µM and the TGI [6] was > 100 µM. The TGI [7] was > 100 µM.
In the case of `CN(C)Cc1cc(N=Nc2ccccc2)cc(CN(C)C)c1O`, the TGI [1] is reported as > 100 µM, the TGI [2] is reported as > 100 µM and the TGI [3] is reported as > 100 µM. For the same compound, the TGI [4] was > 100 µM, the TGI [5] was > 100 µM and the TGI [6] was > 100 µM. The TGI [7] was > 100 µM.
With `CC(C)C1OC(=O)/C=C/C=C/C=C/C=C/C=C/CC(O)CC(O)CC(O)CC(O)CC(O)CC(O)CC(O)CC(O)/C=C/C1C` (stereo unspecified) the TGI [1] was > 100 µM, the TGI [2] was > 100 µM and the TGI [3] was > 100 µM. For the same compound, the TGI [4] was > 100 µM, the TGI [5] was > 100 µM and the TGI [6] was > 100 µM. The TGI [7] was > 100 µM.
Compound `C1=C\CCCCN2C[C@H]3CCCC/C=C\CCCCN4CC[C@@H]([C@H](CCCCCC/1)C4)[C@H](C3)C2` has a TGI [1] of 5 µM, a TGI [2] of 3.26 µM and a TGI [3] of 4.79 µM. It also gave a TGI [4] of 3.48 µM, a TGI [5] of 3.56 µM and a TGI [6] of 2.99 µM. For the same compound, the TGI [7] was 4.56 µM.
In the case of `O=[N+]([O-])c1cccnc1NCC1(CO)CC(Cc2ccccc2)C1` (stereo unspecified), the TGI [1] is reported as > 100 µM, the TGI [2] is reported as > 100 µM and the TGI [3] is reported as > 100 µM. For the same compound, the TGI [4] was > 100 µM, the TGI [5] was > 100 µM and the TGI [6] was > 100 µM. For the same compound, the TGI [7] was > 100 µM.
With `COc1ccc(C2S/C(=C\c3ccc(O)cc3)C(=O)N2NC(=O)Cc2ccccc2)cc1` (stereo unspecified) the TGI [8] was > 100 µM, the TGI [9] was > 100 µM and the TGI [1] was > 100 µM. The TGI [10] was > 100 µM, the TGI [11] was > 100 µM and the TGI [3] was > 100 µM. The TGI [5] was > 100 µM, the TGI [6] was > 100 µM and the TGI [7] was > 100 µM.
For `CC[C@H]1OC([C@H](O)C/C=C\C#C[Si](C)(C)C)C/C=C\C[C@H]1O[Si](C)(C)C(C)(C)C` (stereo partly specified), the TGI [1] was > 100 µM, the TGI [2] was > 100 µM and the TGI [3] was > 100 µM. For the same compound, the TGI [4] was > 100 µM, the TGI [5] was > 100 µM and the TGI [6] was > 100 µM. For the same compound, the TGI [7] was > 100 µM.
Work on `N/C(=N/n1c(=S)[nH]c2ccccc2c1=O)Nn1c(=S)[nH]c2ccccc2c1=O` yielded a TGI [1] of 93.1 µM, a TGI [2] of 85.4 µM and a TGI [3] of 31 µM. The TGI [4] was > 100 µM, the TGI [5] was 57.5 µM and the TGI [6] was > 100 µM. The TGI [7] was > 100 µM.
For `CC1C[C@]2(C)C(=O)N(c3ccccc3)C(=N)[C@@H]2N(C)c2ccccc21` (stereo partly specified), the TGI [1] was > 100 µM, the TGI [2] was > 100 µM and the TGI [3] was > 100 µM. For the same compound, the TGI [4] was > 100 µM, the TGI [5] was > 100 µM and the TGI [6] was > 100 µM. For the same compound, the TGI [7] was > 100 µM.
`C(=C\C(SCc1ccccc1)SCc1ccccc1)/c1ccccc1` was tested, and the TGI [1] was > 10 µM, the TGI [2] was > 10 µM and the TGI [3] was > 10 µM. The TGI [4] was > 10 µM, the TGI [5] was > 10 µM and the TGI [6] was > 10 µM. The TGI [7] was > 10 µM.
For `COC(=O)/N=[N+](\[O-])C(c1ccc(OC)cc1)C1CCCCC1` (stereo unspecified), the TGI [1] was 16.9 µM, the TGI [2] was 12 µM and the TGI [3] was 31.6 µM. It also gave a TGI [4] of 33.2 µM, a TGI [5] of 4.55 µM and a TGI [6] of 28.3 µM. For the same compound, the TGI [7] was 31.8 µM.
With `CCCCOC(=O)C(O)Cc1ccoc1` (stereo unspecified) the TGI [1] was > 100 µM, the TGI [2] was > 100 µM and the TGI [3] was > 100 µM. For the same compound, the TGI [4] was > 100 µM, the TGI [5] was > 100 µM and the TGI [6] was > 100 µM. The TGI [7] was > 100 µM.
With `CN(C)c1ccc(/C=C/C=C(/C#N)c2ccccc2)cc1` the TGI [1] was > 97 µM, the TGI [2] was 5.28 µM and the TGI [3] was > 55.7 µM. The TGI [4] was 28.5 µM, the TGI [5] was > 95.3 µM and the TGI [6] was > 79.5 µM. The TGI [7] was > 93 µM.
For `COc1ccc2c3c1OC1c4[nH]c5ccccc5c4CC4(O)C(C2)N(C)CCC314` (stereo unspecified), the TGI [1] was > 100 µM, the TGI [2] was 32.7 µM and the TGI [3] was 54.1 µM. For the same compound, the TGI [4] was > 100 µM, the TGI [5] was 45.9 µM and the TGI [6] was 50.8 µM. For the same compound, the TGI [7] was 39.5 µM.
`COC(=O)c1c(C)cccc1CC1Cc2c(C)cccc2C1=O` (stereo unspecified) was tested, and the TGI [1] was > 100 µM, the TGI [2] was > 100 µM and the TGI [3] was 79.1 µM. For the same compound, the TGI [4] was > 100 µM, the TGI [6] was > 100 µM and the TGI [7] was 37.9 µM.
In the case of `Cc1nc2c(sc3nc4ccccc4n32)c(=O)[nH]1`, the TGI [1] is reported as > 100 µM, the TGI [2] is reported as > 100 µM and the TGI [3] is reported as > 100 µM. For the same compound, the TGI [4] was > 100 µM, the TGI [5] was > 100 µM and the TGI [6] was > 100 µM. For the same compound, the TGI [7] was > 100 µM.
For `C=CC[C@H]1[C@H](O[Si](C)(C)C(C)(C)C)C=CC(=O)[C@@H]1CC(=O)N(Cc1ccccc1)Cc1ccccc1`, the TGI [1] was > 100 µM, the TGI [2] was > 100 µM and the TGI [3] was > 100 µM. The TGI [4] was 67 µM, the TGI [5] was > 100 µM and the TGI [6] was 27.4 µM. For the same compound, the TGI [7] was 38.3 µM.
With `c1cc2c(c(-c3c4ccccc4nc4ccccc34)c1)CC1(CC2)OCCO1` the TGI [1] was > 100 µM, the TGI [2] was > 100 µM and the TGI [3] was > 100 µM. For the same compound, the TGI [4] was > 100 µM, the TGI [5] was > 100 µM and the TGI [6] was > 100 µM. For the same compound, the TGI [7] was > 100 µM.
In the case of `CC(=O)Nc1ccc2c3c(cc(O)c2c1)N(C(=O)CCCCC(=O)Nc1ccc2c4c(cc(O)c2c1)N(C(=O)OC(C)(C)C)CC4CCl)CC3CCl` (stereo unspecified), the TGI [1] is reported as > 33.2 µM, the TGI [2] is reported as 3.85 µM and the TGI [3] is reported as > 34.4 µM. For the same compound, the TGI [4] was 5.41 µM, the TGI [5] was > 25.8 µM and the TGI [6] was 3.26 µM. It also gave a TGI [7] of 3.49 µM.
With `CCOC(=O)C(NC(=O)Nc1ccc(Cl)c(Cl)c1)C(F)(F)F` (stereo unspecified) the TGI [2] was > 100 µM, the TGI [3] was > 100 µM and the TGI [5] was > 100 µM. The TGI [6] was > 100 µM and the TGI [7] was > 100 µM.
`Cc1nnc2n1-c1ccccc1C(=S)N1CSCC21` (stereo unspecified) was tested, and the TGI [1] was > 100 µM, the TGI [2] was > 100 µM and the TGI [3] was > 100 µM. The TGI [4] was > 100 µM, the TGI [5] was > 100 µM and the TGI [6] was > 100 µM. The TGI [7] was > 100 µM.
With `Cc1cccc2c1NC(=S)[C@@H]1CCCN1C2=O` the TGI [1] was > 100 µM, the TGI [2] was > 100 µM and the TGI [3] was > 100 µM. The TGI [4] was > 100 µM, the TGI [5] was > 100 µM and the TGI [6] was > 100 µM. For the same compound, the TGI [7] was > 100 µM.
For `Cc1ccc(Nc2cc(=O)[nH]c(=S)[nH]2)cc1`, the TGI [1] was > 100 µM, the TGI [2] was > 100 µM and the TGI [3] was > 100 µM. For the same compound, the TGI [4] was > 100 µM, the TGI [5] was > 100 µM and the TGI [6] was > 100 µM. The TGI [7] was > 100 µM.
